Reference: patent publication US20240226026A1, “BRANCHED TAIL LIPID COMPOUNDS AND COMPOSITIONS FOR INTRACELLULAR DELIVERY OF THERAPEUTIC AGENTS” (ModernaTX, Inc., priority 2021, published 2024)

How the values were obtained:
[1] = Encapsulation efficiency (% EE) of lipid nanoparticles; type: physicochemical; conditions: nanoparticles comprising the lipid
Protocol: For nanoparticle compositions including an RNA, a QUANT-IT™ RIBOGREEN® RNA assay (Invitrogen Corporation Carlsbad, CA) can be used to evaluate the encapsulation of an RNA by the nanoparticle composition. The samples are diluted to a concentration of approximately 5 μg/mL in a TE buffer solution (10 mM Tris-HCl, 1 mM EDTA, pH 7.5). 50 μL of the diluted samples are transferred to a polystyrene 96 well plate and either 50 μL of TE buffer or 50 μL of a 2% Triton X-100 solution is added to the wells. The plate is incubated at a temperature of 37° C. for 15 minutes. The RIBOGREEN® reagent is diluted 1:100 in TE buffer, and 100 μL of this solution is added to each well. The fluorescence intensity can be measured using a fluorescence plate reader (Wallac Victor 1420 Multilablel Counter; Perkin Elmer, Waltham, MA) at an excitation wavelength of, for example, about 480 nm and an emission wavelength of, for example, about 520 nm. The fluorescence values of the reagent blank are subtracted from that of each of the samples and the percentage of free RNA is determined by dividing the fluorescence intensity of the intact sample (without addition of Triton X-100) by the fluorescence value of the disrupted sample (caused by the addition of Triton X-100).
The efficiency of encapsulation of a therapeutic and/or prophylactic describes the amount of therapeutic and/or prophylactic that is encapsulated or otherwise associated with a lipid nanoparticle (e.g., an empty LNP or a loaded LNP) after preparation, relative to the initial amount provided. The encapsulation efficiency is desired to be high (e.g., close to 100%). The encapsulation efficiency may be measured, for example, by comparing the amount of therapeutic and/or prophylactic in a solution containing a loaded LNP before and after breaking up the loaded LNP with one or more organic solvents or detergents. Fluorescence may be used to measure the amount of free therapeutic and/or prophylactic (e.g., RNA) in a solution. For the loaded LNPs formulated with lipids of the disclosure, the encapsulation efficiency of a therapeutic and/or prophylactic is at least 50%, for example 50%, 55%, 60%, 65%, 70%, 75%, 80%, 85%, 90%, 91%, 92%, 93%, 94%, 95%, 96%, 97%, 98%, 99%, or 100%. In some embodiments, the encapsulation efficiency is at least 80%. In some embodiments, the encapsulation efficiency is at least 90%. In some embodiments, the encapsulation efficiency of the therapeutic and/or prophylactic agent is between 80% and 100%.
(§1) Lipid nanoparticles (e.g., empty LNPs or loaded LNPs) including DSPC as a phospholipid, cholesterol as a structural lipid, PL-II (e.g., PEG-1) as a PEG lipid, and a lipid according to Formula (I-1), (I), (I-A), (I-A1), (I-A2), (I-A3), or (I-A4) were prepared. In some embodiments, the lipid nanoparticles further included rhodamine-DOPE as a fluorescent lipid. Tables 2a, 2b, and 3 summarize the characteristics of the formulations.

[2] = Apparent pKa of lipid nanoparticles; type: physicochemical; conditions: for Apparent pKa: Table 2a, nanoparticles comprising the lipid; for Apparent pKa 95% CI: Table 2b, 95% confidence interval
[3] = Particle size (diameter) and polydispersity index of lipid nanoparticles; type: physicochemical; conditions: nanoparticles comprising the lipid
Protocol: A Zetasizer Nano ZS (Malvern Instruments Ltd, Malvern, Worcestershire, UK) can be used to determine the particle size, the polydispersity index (PDI) and the zeta potential of the nanoparticle compositions in 1×PBS in determining particle size and 15 mM PBS in determining zeta potential.
Lipid nanoparticles (e.g., empty LNPs or loaded LNPs) may be characterized by a variety of methods. For example, microscopy (e.g., transmission electron microscopy or scanning electron microscopy) may be used to examine the morphology and size distribution of a nanoparticle composition. Dynamic light scattering or potentiometry (e.g., potentiometric titrations) may be used to measure zeta potentials. Dynamic light scattering may also be utilized to determine particle sizes. Instruments such as the Zetasizer Nano ZS (Malvern Instruments Ltd, Malvern, Worcestershire, UK) may also be used to measure multiple characteristics of a nanoparticle composition, such as particle size, polydispersity index, and zeta potential.
as §1

[4] = Lipid nanoparticle surface hydrophobicity by Generalized Polarization by Laurdan (N-GP); type: physicochemical; conditions: for Lipid nanoparticle surface hydrophobicity (N-GP*): Table 2a, Laurdan, higher N-GP indicates a less polar surface; for LNP surface hydrophobicity (N-GP*): Table 2b, nanoparticles comprising the lipid
Description: Surface hydrophobicity of nanoparticles of the disclosure can be measured by Generalized Polarization by Laurdan (GPL). In this method, Laurdan, a fluorescent aminonaphthalene ketone lipid, is post-inserted into the nanoparticle surface and the fluorescence spectrum of Laurdan is collected to determine the normalized Generalized Polarization (N-GP). In some embodiments, nanoparticles formulated with lipids of the disclosure have a surface hydrophobicity expressed as N-GP of between about 0.5 and about 1.5. For example, in some embodiments, nanoparticles formulated with lipids of the disclosure have a surface hydrophobicity expressed as N-GP of about 0.5, about 0.6, about 0.7, about 0.8, about 0.9, about 1.0, about 1.1, about 1.2, about 1.3, about 1.4, or about 1.5. In some embodiments, nanoparticles formulated with lipids of the disclosure have a surface hydrophobicity expressed as N-GP of about 1.0 or about 1.1.

CD-1 mice = assay: Expression of hEPO induced by LNPs (mRNA encoding hEPO) administered to mice; type: in vivo; conditions: Table 4a, serum, 6 h after intravenous injection; for Avg. hEPO Concentration (mIU/mL)* ± Avg. SD: ELLA Simple Plex Assay
Protocol: In some embodiments, hEPO concentrations were determined using an […] (ELLA) Simple Plex Assay (ProteinSimple) with a Human Erythroprotein cartridge. Standards for this assay are calibrated according to the 2. IRP WHO preparation. Nanoparticle compositions including mRNA are useful in the evaluation of the efficacy and usefulness of various formulations for the delivery of therapeutic and/or prophylactics. Higher levels of protein expression induced by administration of a composition including an mRNA will be indicative of higher mRNA translation and/or nanoparticle composition mRNA delivery efficiencies. As the non-RNA components are not thought to affect translational machineries themselves, a higher level of protein expression is likely indicative of a higher efficiency of delivery of the therapeutic and/or prophylactic by a given nanoparticle composition relative to other nanoparticle compositions or the absence thereof.
To assess potency of expression of lipids of the disclosure, the protein expression (hEPO) following administration of a nanoparticle comprising a lipid of the disclosure (e.g., a loaded LNP) to mice was measured.
Lipid nanoparticles (LNPs) including DSPC as a phospholipid, cholesterol as a structural lipid, PL-II (e.g., PEG-1) as a PEG lipid, a lipid according to Formula (I-1), (I), (I-A), (I-A1), (I-A2), (I-A3), or (I-A4), and an mRNA encoding hEPO were intravenously administered to CD-1 mice. The concentration of hEPO in serum was tested at 6 h after injection.

[5] = Table 2a, DSPC, cholesterol, PEG lipid

Structure (SMILES) | % EE ([1]; Table 2a) [%] | % EE ([1]; Table 3) [%] | Apparent pKa [2] | PDI ([3]; Table 2a) | Diameter (nm) [3, 5] [nm] | Diameter (nm) ([3]; Table 3) | PDI ([3]; Table 3) | Lipid nanoparticle surface hydrophobicity (N-GP*) [4] | % EE ([1]; Table 2b) [%] | Apparent pKa 95% CI [2] | Diameter (nm) ([3]; Table 2b) | PDI ([3]; Table 2b) | LNP surface hydrophobicity (N-GP*) [4] | Avg. hEPO Concentration (mIU/mL) ± Avg. SD (CD-1 mice) [mIU/mL] | Avg. hEPO Concentration (mIU/mL)* ± Avg. SD (CD-1 mice) [mIU/mL]
CCCCCCCCC(CCCCCCCC)OC(=O)CCCCCCCN(CCCCCCCC(=O)OCCC(CCCC)CCCC)CCCNS(=O)(=O)CCOC [Compound 3] | 89.4 | 95.6 | 6.549 | 0.099 | 72.1 | 80.9 | 0.139 | 1.00 | – | – | – | – | – | 7.11E+06 ± 1.75E+05 | –
CCCCCCCCC(CCCCCCCC)OC(=O)CCCCCCCN(CCCCCCCC(=O)OCCC(CCCC)CCCC)CCCNC(=O)C1(C)CC1 [Compound 4] | – | 54.1 | – | – | – | 84.6 | 0.194 | – | 45.9 | 6.676 to 6.749 | 94.5 | 0.198 | 1.05 | – | 1.04E+07 ± 2.85E+05
CCCCCCCCC(CCCCCCCC)OC(=O)CCCCCCCN(CCCCCCCC(=O)OCCC(CCCC)CCCC)CCCNS(=O)(=O)CC [Compound 5] | 93.4 | 96.0 | 6.536 | 0.073 | 67.2 | 83.1 | 0.166 | 1.02 | – | – | – | – | – | 1.04E+07 ± 2.49E+05 | –
CCCCCCCCC(CCCCCCCC)OC(=O)CCCCCCCN(CCCCCCCC(=O)OCCC(CCCC)CCCC)CCCNS(=O)(=O)Cc1ccon1 [Compound 6] | 93.2 | 96.7 | 6.323 | 0.042 | 60.2 | 65.9 | 0.163 | 0.99 | – | – | – | – | – | 5.41E+06 ± 6.06E+04 | –
CCCCCCCCC(CCCCCCCC)OC(=O)CCCCCCCN(CCCCCCCC(=O)OCCC(CCCC)CCCC)CCCNc1ncccc1N [Compound 7] | – | 99.0 | – | – | – | 72.6 | 0.133 | – | 98.0 | 6.654 to 6.751 | 76.9 | 0.129 | 1.17 | – | 1.04E+06 ± 2.04E+04
CCCCCC(CCCCC)CCOC(=O)CCCCCCCN(CCCCCCCC(=O)OCCC(CCCC)CCCC)CCCNc1n[s+]([O-])nc1NC (stereo not shown) [Compound 8] | 89.6 | 97.1 | 6.934 | 0.144 | 86.9 | 90.9 | 0.217 | 0.99 | – | – | – | – | – | 4.95E+06 ± 1.24E+05 | –

Further lines, with some results ahead:

% EE ([1]; Table 2a) [%] | % EE ([1]; Table 3) [%] | Apparent pKa [2] | PDI ([3]; Table 2a) | Diameter (nm) [3, 5] [nm] | Diameter (nm) ([3]; Table 3) | PDI ([3]; Table 3) | Lipid nanoparticle surface hydrophobicity (N-GP*) [4] | % EE ([1]; Table 2b) [%] | Apparent pKa 95% CI [2] | Diameter (nm) ([3]; Table 2b) | PDI ([3]; Table 2b) | LNP surface hydrophobicity (N-GP*) [4] | Structure (SMILES) | Avg. hEPO Concentration (mIU/mL) ± Avg. SD (CD-1 mice) [mIU/mL] | Avg. hEPO Concentration (mIU/mL)* ± Avg. SD (CD-1 mice) [mIU/mL]
– | 91.2 | – | – | – | 69.7 | 0.165 | – | 91.9 | 6.583 to 6.671 | 96.9 | 0.103 | 0.98 | CCCCCC(CCCCC)CCOC(=O)CCCCCCCN(CCCCCCCC(=O)OCCC(CCCC)CCCC)CCCNc1noc(N)n1 [Compound 9] | – | 1.84E+06 ± 2.44E+04
55.1 | 91.7 | 6.738 | 0.208 | 133.3 | 96.7 | 0.154 | 1.03 | 65.0 | 6.644 to 6.741 | 122.3 | 0.181 | 0.89 | CCCCCC(CCCCC)CCOC(=O)CCCCCCCN(CCCCCCCC(=O)OCCC(CCCC)CCCC)CCCNS(=O)(=O)CCOC [Compound 10] | 6.15E+06 ± 1.35E+05 | –
– | 34.3 | – | – | – | 117 | 0.262 | – | 18.2 | 6.906 to 6.961 | 200.1 | 0.199 | 1.01 | CCCCCC(CCCCC)CCOC(=O)CCCCCCCN(CCCCCCCC(=O)OCCC(CCCC)CCCC)CCCNC(=O)C1(C)CC1 [Compound 11] | – | 4.15E+06 ± 8.08E+04
80.9 | 94.1 | 6.669 | 0.248 | 120.2 | 109.2 | 0.155 | 1.04 | – | – | – | – | – | CCCCCC(CCCCC)CCOC(=O)CCCCCCCN(CCCCCCCC(=O)OCCC(CCCC)CCCC)CCCNS(=O)(=O)CC [Compound 12] | 5.83E+06 ± 1.13E+05 | –
61.0 | 96.1 | 6.688 | 0.205 | 109.5 | 76.1 | 0.118 | 1.08 | 73.4 | 6.641 to 6.731 | 98.5 | 0.164 | 1.09 | CCCCCC(CCCCC)CCOC(=O)CCCCCCCN(CCCCCCCC(=O)OCCC(CCCC)CCCC)CCCNS(=O)(=O)Cc1ccon1 [Compound 13] | 1.41E+07 ± 2.72E+05 | –
